Earlier results, collected in patent US9034383B2 (NanoRx, Inc., priority 2010, dated 2015).

Columns and labels:
rats = conditions: exercise-trained rats run to exhaustion on a treadmill; Kim et al. 2003
angiogenesis = conditions: Thippeswamy 2008

With `CCCCCCCCCCCCCCCCCCCCCCCCCCCCO` [pure octacosanol, octacosanol] as the compound, how does the ergogenic properties (rats) read?
Its ergogenic properties is “sparing of muscle glycogen stores and increasing the oxidative capacity in the muscle”.

And the “neurologic and pulmonary function” value (amyotrophic lateral sclerosis patients, double-blind placebo-controlled crossover, Fallat 1986)?
The value was “did not show any benefits”.

And the “neutral sterol and bile acid concentration in feces” value (humans, Jahreis 2008)?
Its value is “decreases”.

And the angiogenesis (angiogenesis)?
Its angiogenesis is “inhibits angiogenesis”.
